Consider nine compounds from ChEMBL document CHEMBL1135321, “Tetrahydrothienopyridylbutyl-tetrahydrobenzindoles: new selective ligands of the 5-HT(7) receptor” (Bioorg Med Chem Lett, 2002).

In general, pKi refers to −log10 of the Ki, conventionally taken in molar units. The low end stands for a high Ki, the high end for a low Ki.

Test [1] concerns the target 5-hydroxytryptamine receptor 6 (Homo sapiens, UniProt P50406). Description: Ability to displace the radioligand [3H]LSD from human 5-hydroxytryptamine 6 receptor.
Test [2] has as its target 5-hydroxytryptamine receptor 7 (Homo sapiens, UniProt P34969). Description: Ability to displace the radioligand [3H]5-carboxyamidotryptamine ([3H]5-CT) from human 5-hydroxytryptamine 7 receptor expressed in COS-7 cells. The class given is cell-based.
Test [3] has as its target Serotonin 2 (5-HT2) receptor (Rattus norvegicus, UniProt P30994+P08909+P14842). The test can be described thus: Ability to displace the radioligand [3H]ketanserin from 5-hydroxytryptamine 2 receptor of rat cerebral cortex membrane. The class given is tissue-based.
Test [4] deals with T1, 5-hydroxytryptamine receptor 4 (Cavia porcellus, UniProt O70528). The test can be described thus: Ability to displace the radioligand [3H]GR-113808 from guinea pig striatum 5-hydroxytryptamine 4 receptor.
Test [5] has as its target T2, 5-hydroxytryptamine receptor 1B (Rattus norvegicus, UniProt P28564). The test can be described thus: Ability to displace the radioligand [125I](-)-iodocyanopindolol from rat striatal 5-hydroxytryptamine 1B receptor.
The subject of test [6] is HEK293. The test can be described thus: Influence on 5-HT-induced stimulation of cAMP accumulation in HEK 293 cells; NS is not Stimulated. The class given is functional, cell-based. Particulars: Homo sapiens. Background: Changes in cAMP serve as a functional read-out for many G protein-coupled receptors.
In test [7] the target is T3, 5-hydroxytryptamine receptor 1A (Homo sapiens, UniProt P08908).
T3 sequence (P08908 whole entry): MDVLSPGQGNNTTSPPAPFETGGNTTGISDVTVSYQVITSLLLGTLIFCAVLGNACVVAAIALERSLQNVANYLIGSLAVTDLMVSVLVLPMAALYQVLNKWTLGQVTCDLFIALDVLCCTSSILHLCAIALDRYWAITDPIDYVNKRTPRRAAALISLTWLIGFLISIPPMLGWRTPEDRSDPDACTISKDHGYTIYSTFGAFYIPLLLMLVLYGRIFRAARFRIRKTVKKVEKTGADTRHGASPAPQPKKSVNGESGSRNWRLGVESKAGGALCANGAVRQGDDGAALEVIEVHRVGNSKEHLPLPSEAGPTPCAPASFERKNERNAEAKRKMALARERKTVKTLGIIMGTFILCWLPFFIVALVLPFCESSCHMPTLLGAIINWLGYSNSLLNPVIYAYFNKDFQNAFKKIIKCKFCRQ
The test can be described thus: Ability to displace the radioligand [3H]-8-OH-DPAT from human 5-hydroxytryptamine 1A receptor.

For test [8], the target named is T4, Serotonin 3 receptor (5HT3) (Mus musculus, UniProt Q9JHJ5+P23979).
T4 sequence (Q9JHJ5 whole entry): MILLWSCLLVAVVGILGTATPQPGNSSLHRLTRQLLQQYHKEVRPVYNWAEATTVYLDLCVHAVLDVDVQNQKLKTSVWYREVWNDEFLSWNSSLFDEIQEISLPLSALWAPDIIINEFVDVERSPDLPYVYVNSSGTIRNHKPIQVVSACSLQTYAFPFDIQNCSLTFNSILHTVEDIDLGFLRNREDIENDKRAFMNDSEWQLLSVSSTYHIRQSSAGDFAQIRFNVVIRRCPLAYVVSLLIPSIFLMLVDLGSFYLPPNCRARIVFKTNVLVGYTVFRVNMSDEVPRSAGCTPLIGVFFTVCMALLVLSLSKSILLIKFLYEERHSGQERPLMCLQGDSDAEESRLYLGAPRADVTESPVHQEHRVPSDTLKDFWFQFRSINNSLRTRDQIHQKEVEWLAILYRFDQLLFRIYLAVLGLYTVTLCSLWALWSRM
T4 sequence (P23979 whole entry): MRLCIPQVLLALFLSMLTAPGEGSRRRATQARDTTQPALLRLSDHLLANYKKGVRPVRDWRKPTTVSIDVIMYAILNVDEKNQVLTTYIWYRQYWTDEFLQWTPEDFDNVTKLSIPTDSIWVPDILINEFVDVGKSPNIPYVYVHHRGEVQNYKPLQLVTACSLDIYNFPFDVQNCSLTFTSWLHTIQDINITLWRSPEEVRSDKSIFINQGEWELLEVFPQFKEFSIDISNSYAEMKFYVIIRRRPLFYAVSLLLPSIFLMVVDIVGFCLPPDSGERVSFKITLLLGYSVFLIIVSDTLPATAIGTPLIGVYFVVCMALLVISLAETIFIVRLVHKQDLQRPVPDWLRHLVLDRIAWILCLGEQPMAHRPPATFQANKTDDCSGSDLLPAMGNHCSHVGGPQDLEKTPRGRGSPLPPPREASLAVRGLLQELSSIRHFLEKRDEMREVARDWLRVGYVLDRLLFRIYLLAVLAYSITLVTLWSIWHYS
The test can be described thus: Ability to displace the radioligand [3H]GR-65630 from 5-hydroxytryptamine 3 receptor expressed in NIE-115 cells. The class given is cell-based.

Test [9] concerns the target T1, 5-hydroxytryptamine receptor 4. Description: Ability to displace the radioligand [3H]GR-113808 from guinea pig striatum 5-HT4 receptor.
Test [10] has as its target T2, 5-hydroxytryptamine receptor 1B. The test can be described thus: Ability to displace the radioligand [125I](-)-iodocyanopindolol from rat striatal 5-HT1B receptor.

pKi: −log10 of the molar value. Calls of active or inactive are those of the source. The rule behind the calls is not given here.

5-hydroxytryptamine receptor 7, sequence (P34969 whole entry): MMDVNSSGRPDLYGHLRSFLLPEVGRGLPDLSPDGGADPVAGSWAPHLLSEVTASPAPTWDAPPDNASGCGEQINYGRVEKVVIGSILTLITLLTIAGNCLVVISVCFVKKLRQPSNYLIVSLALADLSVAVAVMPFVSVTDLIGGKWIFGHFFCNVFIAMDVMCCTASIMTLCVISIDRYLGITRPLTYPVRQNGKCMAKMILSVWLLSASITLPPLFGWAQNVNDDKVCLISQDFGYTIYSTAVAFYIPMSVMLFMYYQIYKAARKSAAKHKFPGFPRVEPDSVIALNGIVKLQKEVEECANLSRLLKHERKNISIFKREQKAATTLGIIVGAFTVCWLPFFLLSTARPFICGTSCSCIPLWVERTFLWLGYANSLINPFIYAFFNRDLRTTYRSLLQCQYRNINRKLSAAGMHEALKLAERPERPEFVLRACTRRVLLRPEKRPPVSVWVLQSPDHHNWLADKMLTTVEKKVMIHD
T1 sequence (O70528 whole entry): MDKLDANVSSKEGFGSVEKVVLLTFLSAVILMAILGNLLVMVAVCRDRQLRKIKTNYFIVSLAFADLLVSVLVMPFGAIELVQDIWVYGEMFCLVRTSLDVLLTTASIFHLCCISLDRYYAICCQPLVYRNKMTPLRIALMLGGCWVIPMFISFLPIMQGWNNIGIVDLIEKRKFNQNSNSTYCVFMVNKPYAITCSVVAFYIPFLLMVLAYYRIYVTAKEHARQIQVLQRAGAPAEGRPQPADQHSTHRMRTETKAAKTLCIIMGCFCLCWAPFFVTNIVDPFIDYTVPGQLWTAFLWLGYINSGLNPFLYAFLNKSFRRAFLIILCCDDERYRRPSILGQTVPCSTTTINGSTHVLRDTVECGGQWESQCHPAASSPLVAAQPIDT
5-hydroxytryptamine receptor 6, sequence (P50406 whole entry): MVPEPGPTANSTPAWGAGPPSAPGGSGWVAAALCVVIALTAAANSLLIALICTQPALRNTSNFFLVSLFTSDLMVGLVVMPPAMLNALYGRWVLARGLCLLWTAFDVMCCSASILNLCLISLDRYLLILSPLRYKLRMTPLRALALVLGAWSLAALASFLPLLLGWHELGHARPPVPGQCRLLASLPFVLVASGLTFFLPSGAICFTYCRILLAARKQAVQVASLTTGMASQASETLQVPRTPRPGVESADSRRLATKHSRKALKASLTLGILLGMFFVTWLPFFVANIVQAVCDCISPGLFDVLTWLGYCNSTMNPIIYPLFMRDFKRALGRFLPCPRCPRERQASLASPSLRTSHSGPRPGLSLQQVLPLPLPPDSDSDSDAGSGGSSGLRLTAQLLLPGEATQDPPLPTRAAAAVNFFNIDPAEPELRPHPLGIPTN
T2 sequence (P28564 whole entry): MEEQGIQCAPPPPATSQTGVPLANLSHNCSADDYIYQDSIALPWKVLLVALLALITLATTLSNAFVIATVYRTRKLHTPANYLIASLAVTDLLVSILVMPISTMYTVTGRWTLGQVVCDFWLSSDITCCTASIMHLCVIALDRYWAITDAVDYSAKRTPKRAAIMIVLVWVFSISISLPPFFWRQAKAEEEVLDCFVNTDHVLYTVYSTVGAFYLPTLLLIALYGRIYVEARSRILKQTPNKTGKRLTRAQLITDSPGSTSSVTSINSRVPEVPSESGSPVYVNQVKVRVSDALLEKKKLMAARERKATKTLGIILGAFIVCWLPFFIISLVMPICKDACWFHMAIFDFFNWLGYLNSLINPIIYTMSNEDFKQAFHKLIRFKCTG

Turning to `O=C1Nc2cccc3c2C1(CCCCN1CCc2sccc2C1)CCC3` (centres undefined), the pKi in test [1] is below 6.00; in test [2] it was 8.19; in [4], below 6.00; in test [5], below 6.00; in test [7], 6.29. Besides, the “Log Ki” value in test [3] was -6.08; in test [8], below -6. Further, the result in test [6] was inactive.
`O=C1Nc2cccc3c2C1(CCCCN1CCc2n[nH]cc2C1)CCC3` (centres undefined): in test [2], the negative-log Ki (pKi) is 6.09. Besides, the “Log Ki” value in [3] was below -6.
`O=C1Nc2cccc3c2C1(CCCCCN1CCc2ccccc2C1)CCC3` (centres undefined) gave a pKi in [2] of 7.90. Also, the “Log Ki” value in test [3] was -6.16.
Turning to `CN1C(=O)C2(CCCCN3CCc4sccc4C3)CCCc3cccc1c32` (centres undefined), the pKi was below 6.00 in [1]; 8.01 in [2]; below 6.00 in test [9]; 6.11 in [7]; below 6.00 in test [10]. The “Log Ki” value was -6.02 in test [3] and below -6 in [8].
As to `O=C1Nc2cccc3c2C1(CCCCN1CCc2ccccc2C1)CCC3` (centres undefined), the negative logarithm of the Ki (pKi) in [2] is 8.35. Moreover, the “Log Ki” value in test [3] is on record as -6.21.
`O=C1Nc2cccc3c2C1(CCCCN1CCc2[nH]cnc2C1)CCC3` (centres undefined) showed a pKi in [2] of 6.25. Besides, the “Log Ki” value in test [3] is below -6.
The matching figures for `O=C1Nc2cccc3c2C1(CCCCN1CCc2occc2C1)CCC3` (centres undefined): 7.80 and below -6.
The compound `O=C1Nc2cccc3c2C1(CCCN1CCc2ccccc2C1)CCC3` (centres undefined) showed a pKi in test [2] of 8.08. In addition, the “Log Ki” value in test [3] was -6.31.
On to `CCN1C(=O)C2(CCCCN3CCc4sccc4C3)CCCc3cccc1c32` (centres undefined), for which the pKi in test [2] was 6.76. In addition, the “Log Ki” value in [3] was -6.31.
